Experimental data taken from the supplement of paper PMC11061612.

Tests used:
Test in all cases: combination Emax (second highest fraction inhibited in the dose matrix, 72 h); higher = more inhibition; extreme values may be limits of the assay
[1] = system: VA-ES-BJ (Other Solid Carcinomas)
In short: (§1)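 Cell lines grown in DMEM/F12 or RPMI with 10% FBS were plated in 1536-well plates and held 24 hours at 37°C, 5% CO2 before 72 hours of exposure to two-drug dose matrices, with DMSO typically at 0.2%. CellTiter-Glo 2.0 luminescence gave viability, which was converted to inhibition. Vehicle wells were set to 0 and blank wells to 1. Combination Emax is the second-highest inhibition in the matrix, and Bliss excess is the observed combination effect minus the expected EA + EB − EA·EB, where EA and EB are the single-agent effects.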

[2] = system: C-4-I (Cervical Carcinoma)
In short: as §1

[3] = system: HOP-62 (Lung Adenocarcinoma)
In short: as §1

[4] = system: BT-549 (Breast Carcinoma)
In short: as §1

[5] = system: PANC-04-03 (Pancreatic Carcinoma)
In short: as §1

[6] = system: KMOE-2 (Acute Myeloid Leukemia)
In short: as §1

[7] = system: SW13 (Other Solid Carcinomas)
In short: as §1

PWR-1E (Non-Cancerous) = system: PWR-1E (Non-Cancerous)
In short: as §1

[8] = system: KARPAS-299 (T-Cell Non-Hodgkin's Lymphoma)
In short: as §1

[9] = system: SCC-15 (Oral Cavity Carcinoma)
In short: as §1

EW-24 (Ewing's Sarcoma) = system: EW-24 (Ewing's Sarcoma)
In short: as §1

[10] = system: EoL-1-cell (Acute Myeloid Leukemia)
In short: as §1

[11] = system: Ca9-22 (Head and Neck Carcinoma)
In short: as §1

[12] = system: EFM-19 (Breast Carcinoma)
In short: as §1

NB69 (Neuroblastoma) = system: NB69 (Neuroblastoma)
In short: as §1

[13] = system: MIA-PaCa-2 (Pancreatic Carcinoma)
In short: as §1

[14] = system: RF-48 (B-Cell Non-Hodgkin's Lymphoma)
In short: as §1

YH-13 (Glioblastoma) = system: YH-13 (Glioblastoma)
In short: as §1

[15] = system: NEC8 (Other Solid Carcinomas)
In short: as §1

D-263MG (Glioblastoma) = system: D-263MG (Glioblastoma)
In short: as §1

## C=CCn1c(=O)c2cnc(Nc3ccc(N4CCN(C)CC4)cc3)nc2n1-c1cccc(C(C)(C)O)n1 [AZD1775] + C[C@@H]1COCCN1C2=NC(=NC(=C2)C3(CC3)[S@](=N)(=O)C)C4=C5C=CNC5=NC=C4 [AZD6738] (first compound max 1 µM, partner max 10 µM)
[1]
  combination Emax: 0.822
[2]
  combination Emax: 0.93
[3]
  combination Emax: 0.668
[4]
  combination Emax: 0.808
[5]
  combination Emax: 0.63
[6]
  combination Emax: 0.92
[7]
  combination Emax: 0.636
PWR-1E (Non-Cancerous)
  combination Emax: 0.913
[8]
  combination Emax: 0.965
[9]
  combination Emax: 0.517
EW-24 (Ewing's Sarcoma)
  combination Emax: 0.652
[10]
  combination Emax: 1
[11]
  combination Emax: 0.957
[12]
  combination Emax: 0.672
NB69 (Neuroblastoma)
  combination Emax: 0.971
[13]
  combination Emax: 0.956
[14]
  combination Emax: 0.669
YH-13 (Glioblastoma)
  combination Emax: 0.69
[15]
  combination Emax: 0.932
D-263MG (Glioblastoma)
  combination Emax: 0.908
